Results taken from ChEMBL document CHEMBL1136464, “Array synthesis of novel lipodepsipeptide” (Bioorg Med Chem Lett, 2003).
≈ marks a conversion by molar mass, not a printed value.

Assays:
Assay type in all cases: functional
Enterococcus faecium [1] = experiment: Antibacterial activity against Enterococcus faecium ATCC 49452 at 0 % serum
Enterococcus faecium [2] = experiment: Antibacterial activity against Enterococcus faecium ATCC 49452 at 10 % serum; settings: ATCC 49452, Serum
Enterococcus faecalis [3] = experiment: Antibacterial activity against Enterococcus faecalis ATCC 6569 at 0 % serum
Enterococcus faecalis [4] = experiment: Antibacterial activity against Enterococcus faecalis ATCC 6569 at 10 % serum; settings: ATCC 6569, Serum
Staphylococcus aureus [5] = experiment: Antibacterial activity against methicillin-resistant staphylococcus aureus ATCC 43300 at 10 % serum
Staphylococcus aureus [6] = experiment: Antibacterial activity against methicillin susceptible staphylococcus aureus ATCC 29213 at 0 % serum
Staphylococcus aureus [7] = experiment: Antibacterial activity against methicillin susceptible staphylococcus aureus ATCC 29213 at 10 % serum
Staphylococcus aureus [8] = experiment: Antibacterial activity against methicillin-resistant staphylococcus aureus ATCC 43300 at 0 % serum

SMILES	MIC (Enterococcus faecium [1]) [mg/L]	MIC (Enterococcus faecium [2]) [mg/L]	MIC (Enterococcus faecalis [3]) [mg/L]	MIC (Enterococcus faecalis [4]) [mg/L]	MIC (Staphylococcus aureus [5]) [mg/L]	MIC (Staphylococcus aureus [6]) [mg/L]	MIC (Staphylococcus aureus [7]) [mg/L]	MIC (Staphylococcus aureus [8]) [mg/L]
CCCCCCCCCC(=O)N[C@@H](Cc1c[nH]c2ccccc12)C(=O)N[C@H](CC(N)=O)C(=O)N[C@@H](CCO)C(=O)N[C@@H]1C(=O)NCC(=O)N[C@@H](CCCNCc2cc3ccccc3o2)C(=O)N[C@@H](CC(=O)O)C(=O)N[C@H](C)C(=O)N[C@@H](CC(=O)O)C(=O)NCC(=O)N[C@H](CO)C(=O)N[C@@H]([C@H](C)CC(=O)O)C(=O)N[C@@H](CC(=O)c2ccccc2N)C(=O)O[C@@H]1C	3.13 (≈ 1.8 µM)	12.5 (≈ 7.2 µM)	3.13 (≈ 1.8 µM)	6.25 (≈ 3.6 µM)	0.78 (≈ 0.449 µM)	0.78 (≈ 0.449 µM)	1.56 (≈ 0.898 µM)	0.78 (≈ 0.449 µM)
CCCCCCCCCC(=O)N[C@@H](Cc1c[nH]c2ccccc12)C(=O)N[C@H](CC(N)=O)C(=O)N[C@@H](CCO)C(=O)N[C@@H]1C(=O)NCC(=O)N[C@@H](CCCNCc2ccc(C(=O)N3CCN(c4ccc(F)cc4)CC3)cc2)C(=O)N[C@@H](CC(=O)O)C(=O)N[C@H](C)C(=O)N[C@@H](CC(=O)O)C(=O)NCC(=O)N[C@H](CO)C(=O)N[C@@H]([C@H](C)CC(=O)O)C(=O)N[C@@H](CC(=O)c2ccccc2N)C(=O)O[C@@H]1C	6.25 (≈ 3.28 µM)	6.25 (≈ 3.28 µM)	3.13 (≈ 1.64 µM)	6.25 (≈ 3.28 µM)	0.78 (≈ 0.41 µM)	0.78 (≈ 0.41 µM)	1.56 (≈ 0.82 µM)	0.78 (≈ 0.41 µM)
CCCCCCCCCC(=O)N[C@@H](Cc1c[nH]c2ccccc12)C(=O)N[C@H](CC(N)=O)C(=O)N[C@@H](CCO)C(=O)N[C@@H]1C(=O)NCC(=O)N[C@@H](CCCNCc2ccc(S(=O)(=O)N3CCN(c4ccccc4)CC3)cc2)C(=O)N[C@@H](CC(=O)O)C(=O)N[C@H](C)C(=O)N[C@@H](CC(=O)O)C(=O)NCC(=O)N[C@H](CO)C(=O)N[C@@H]([C@H](C)CC(=O)O)C(=O)N[C@@H](CC(=O)c2ccccc2N)C(=O)O[C@@H]1C	1.56 (≈ 0.812 µM)	12.5 (≈ 6.51 µM)	0.78 (≈ 0.406 µM)	6.25 (≈ 3.25 µM)	0.78 (≈ 0.406 µM)	0.39 (≈ 0.203 µM)	3.13 (≈ 1.63 µM)	0.78 (≈ 0.406 µM)
CCCCCCCCCC(=O)N[C@@H](Cc1c[nH]c2ccccc12)C(=O)N[C@H](CC(N)=O)C(=O)N[C@@H](CCO)C(=O)N[C@@H]1C(=O)NCC(=O)N[C@@H](CCCNCc2ccc(/C=C/C(=O)N3CCN(c4ccc(Cl)c(Cl)c4)CC3)cc2)C(=O)N[C@@H](CC(=O)O)C(=O)N[C@H](C)C(=O)N[C@@H](CC(=O)O)C(=O)NCC(=O)N[C@H](CO)C(=O)N[C@@H]([C@H](C)CC(=O)O)C(=O)N[C@@H](CC(=O)c2ccccc2N)C(=O)O[C@@H]1C	1.56 (≈ 0.788 µM)	50 (≈ 25.3 µM)	1.56 (≈ 0.788 µM)	50 (≈ 25.3 µM)	12.5 (≈ 6.31 µM)	0.78 (≈ 0.394 µM)	12.5 (≈ 6.31 µM)	0.78 (≈ 0.394 µM)
CCCCCCCCCC(=O)N[C@@H](Cc1c[nH]c2ccccc12)C(=O)N[C@H](CC(N)=O)C(=O)N[C@@H](CCO)C(=O)N[C@@H]1C(=O)NCC(=O)N[C@@H](CCCNCc2ccc(F)cc2F)C(=O)N[C@@H](CC(=O)O)C(=O)N[C@H](C)C(=O)N[C@@H](CC(=O)O)C(=O)NCC(=O)N[C@H](CO)C(=O)N[C@@H]([C@H](C)CC(=O)O)C(=O)N[C@@H](CC(=O)c2ccccc2N)C(=O)O[C@@H]1C	6.25 (≈ 3.61 µM)	25 (≈ 14.4 µM)	6.25 (≈ 3.61 µM)	12.5 (≈ 7.21 µM)	0.78 (≈ 0.45 µM)	1.56 (≈ 0.9 µM)	3.13 (≈ 1.81 µM)	0.78 (≈ 0.45 µM)
CCCCCCCCCC(=O)N[C@@H](Cc1c[nH]c2ccccc12)C(=O)N[C@H](CC(N)=O)C(=O)N[C@@H](CCO)C(=O)N[C@@H]1C(=O)NCC(=O)N[C@@H](CCCNCc2nccs2)C(=O)N[C@@H](CC(=O)O)C(=O)N[C@H](C)C(=O)N[C@@H](CC(=O)O)C(=O)NCC(=O)N[C@H](CO)C(=O)N[C@@H]([C@H](C)CC(=O)O)C(=O)N[C@@H](CC(=O)c2ccccc2N)C(=O)O[C@@H]1C	6.24 (≈ 3.66 µM)	6.25 (≈ 3.67 µM)	6.25 (≈ 3.67 µM)	12.5 (≈ 7.34 µM)	0.78 (≈ 0.458 µM)	0.78 (≈ 0.458 µM)	1.56 (≈ 0.916 µM)	0.78 (≈ 0.458 µM)
